The values that follow come from US6586437B2, “(S)-hydroxynefazodone antipsychotic therapy” (Sepracor Inc., priority 1999, dated 2003).

Structures can show the parent of a compound that is named as a salt.

In data set [1] the target is T1, norepinephrine uptake, rat hypothalamus synaptosomes (Rattus norvegicus, UniProt Q9WTR4).
T1 construct: synaptosomes isolated at Cerep in a 0.32 M sucrose buffer from a male Wistar rat hypothalamus; from tissue; host or cells: male Wistar rat hypothalamus synaptosomes
T1 sequence (Q9WTR4 1-597): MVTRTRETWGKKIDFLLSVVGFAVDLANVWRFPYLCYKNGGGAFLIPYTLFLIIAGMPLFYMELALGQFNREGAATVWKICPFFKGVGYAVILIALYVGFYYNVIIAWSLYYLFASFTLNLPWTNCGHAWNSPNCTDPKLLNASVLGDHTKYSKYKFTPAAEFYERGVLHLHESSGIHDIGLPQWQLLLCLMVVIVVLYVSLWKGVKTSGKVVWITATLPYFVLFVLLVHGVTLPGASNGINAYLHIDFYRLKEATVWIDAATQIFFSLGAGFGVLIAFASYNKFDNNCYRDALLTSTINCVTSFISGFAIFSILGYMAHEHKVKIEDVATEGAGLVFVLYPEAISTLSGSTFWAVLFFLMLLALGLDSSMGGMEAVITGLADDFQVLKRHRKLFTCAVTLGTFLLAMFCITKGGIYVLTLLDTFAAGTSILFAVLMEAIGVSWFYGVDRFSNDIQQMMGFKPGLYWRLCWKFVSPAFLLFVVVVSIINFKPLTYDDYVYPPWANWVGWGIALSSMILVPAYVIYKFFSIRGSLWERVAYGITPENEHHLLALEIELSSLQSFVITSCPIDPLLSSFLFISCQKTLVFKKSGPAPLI
The data set can be described thus: Norepinephrine uptake functional assay (synaptosomes). The data set is classed as biochemical, male Wistar rat. The note with it: [3H]-norepinephrine, read-out: Monoamine Neuronal Transport IC50, NE uptake. The protocol:
Norepinephrine Uptake Functional Assay
Characterization of norepinephrine uptake is performed using synaptosomes isolated at Cerep in a 0.32 M sucrose buffer from a male Wistar rat hypothalamus. The uptake of radiolabeled norepinephrine by synaptosomes (100 μg of proteins/point) is allowed by incubating them for 20 minutes at 37° C. in presence of test compounds and [3H]-norepinephrine (0.1 μCi/point). The experiment is performed in a deep well.
Synaptosomes and [3H]-norepinephrine are prepared in a Krebs buffer pH 7.4 containing 25 mM NaHCO3, 11 mM glucose and 50 μM ascorbic acid. This incubation buffer is oxygenated during 5 minutes before incubation. Basal control is incubated for 20 minutes at 4° C. in order to avoid any uptake. Following this incubation the uptake is stopped by filtration through an “unifilter 96-wells GFB ” Packard plate washed with Krebs buffer containing 25 mM NaHCO3 in order to eliminate the free [3H]-norepinephrine. The radioactivity associated to the synaptosomes retained onto the unifilter corresponding to the uptake is then measured with a microplate scintillation counter Topcount, Packard using a scintillation liquid microscint 0, Packard.
[See Perovics and Müller, op.cit. (1995).]

The target of a further data set is α1 Receptor. The data set is described as follows: α1 receptor binding. Conditions: read-out: α1 Receptor Binding IC50, Alpha1.
The conditions of data set [2]: cited from earlier work.
A further data set has as its system dopaminergic receptors. The note with it: in vitro binding studies; cited from earlier work.
The test system of data set [3] is beta adrenergic receptors. Conditions: in vitro binding studies; cited from earlier work.
In data set [4] the test system is alpha2 adrenergic receptors. Conditions: in vitro binding studies; cited from earlier work.
Another data set has as its target T2, 5-HT1A receptors (Homo sapiens, UniProt P08908).
T2 sequence (P08908 1-422): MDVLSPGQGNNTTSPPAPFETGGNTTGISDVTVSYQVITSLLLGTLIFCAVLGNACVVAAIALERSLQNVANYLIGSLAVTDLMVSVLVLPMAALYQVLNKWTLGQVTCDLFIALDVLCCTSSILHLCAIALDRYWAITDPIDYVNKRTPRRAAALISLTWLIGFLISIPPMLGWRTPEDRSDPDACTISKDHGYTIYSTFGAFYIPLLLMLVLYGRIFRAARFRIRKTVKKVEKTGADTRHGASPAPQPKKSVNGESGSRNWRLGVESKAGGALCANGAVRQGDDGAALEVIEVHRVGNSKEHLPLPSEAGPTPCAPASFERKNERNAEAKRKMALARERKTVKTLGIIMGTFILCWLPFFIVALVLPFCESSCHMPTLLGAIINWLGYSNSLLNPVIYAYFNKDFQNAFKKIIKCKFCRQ
The note with it: in vitro binding studies; cited from earlier work.

Another data set concerns benzodiazepine receptors. Conditions: in vitro binding studies; cited from earlier work.
In another data set the test system is cholinergic receptors. Conditions: in vitro binding studies; cited from earlier work.
For data set [5], the system named is alpha1-adrenergic receptors. Conditions: cited from earlier work.

In the case of `CC(O)c1nn(CCCN2CCN(c3cccc(Cl)c3)CC2)c(=O)n1CCOc1ccccc1` (racemic) [(RS)—OH, 2-[3-[4-(3-chlorophenyl)1-piperazinyl]propyl]-5-(1-hydroxyethyl)-2,4-dihydro-4-(phenoxyethyl)-3H-1,2,4-triazol-3-one], the IC50 in data set [1] was found to be 1000 nM; at α1 Receptor, 381 nM.

Take `C[C@@H](O)c1nn(CCCN2CCN(c3cccc(Cl)c3)CC2)c(=O)n1CCOc1ccccc1` [(R)—OH, (R)-Hydroxynefazodone hydrochloride]: the IC50 is 1200 nM in data set [1] and 367 nM at α1 Receptor.

On to `C[C@H](O)c1nn(CCCN2CCN(c3cccc(Cl)c3)CC2)c(=O)n1CCOc1ccccc1` [(S)—OH, (S)-2-{3-[4-(3-Chlorophenyl)-1-piperazinyl]propyl}-4-(2-phenoxyethyl)-5-[1-(hydroxy)-ethyl]-2,4-dihydro-[1,2,4]triazol-3-one], for which the IC50 in data set [1] was determined as 1500 nM; on α1 Receptor, 419 nM.

With `CCc1nn(CCCN2CCN(c3cccc(Cl)c3)CC2)c(=O)n1CCOc1ccccc1` [Nefazodone hydrochloride], the absolute bioavailability entry in data set [2] (low and variable because of extensive metabolism) is “about 20%”.

With `CCc1nn(CCCN2CCN(c3cccc(Cl)c3)CC2)c(=O)n1CCOc1ccccc1` [Nefazodone], in the data set with dopaminergic receptors, the “affinity for dopaminergic receptors” value is “no significant affinity”. Further, the “affinity for beta adrenergic receptors” value in [3] is listed as “no significant affinity”. For the same compound, in data set [2] (in vivo), the half-life is 2 to 4 h and the “time of peak plasma concentrations” value is “about one”. Moreover, in data set [4], the “affinity for alpha2 adrenergic receptors” value is “no significant affinity”. For the same compound, the “affinity for 5-HT1A receptors” value on 5-HT1A receptors is reported as “no significant affinity”. Further, the “affinity for benzodiazepine receptors” value with benzodiazepine receptors is listed as “no significant affinity”. Also, the “affinity for cholinergic receptors” value in the data set with cholinergic receptors was “no significant affinity”. Also, the “effect on alpha1-adrenergic receptors” value in data set [5] is given as “antagonize”. Besides, at α1 Receptor, the IC50 stood at 306 nM.
